In US8759342B2, “Benzo[1,4]oxazin-3-one, benzo[1,4]thiazin-3-one and quinolin-2-one urotensin II receptor antagonists” (Janssen Pharmaceutica NV, priority 2006, dated 2014) one finds Ki and IC50 data, which are given here for 23 compounds.

By Ki is commonly meant the dissociation constant of the complex between target and ligand, obtained from inhibition or displacement. As a reminder, the IC50 is the concentration at which inhibition is half-maximal.

One assay concerns the target T1, Human UII receptors (Homo sapiens, UniProt Q9UKP6).
T1 construct: host or cells: Human Skeletal Muscle Myoblasts (HSMM), intact adherent cells
T1 sequence (Q9UKP6 1-389): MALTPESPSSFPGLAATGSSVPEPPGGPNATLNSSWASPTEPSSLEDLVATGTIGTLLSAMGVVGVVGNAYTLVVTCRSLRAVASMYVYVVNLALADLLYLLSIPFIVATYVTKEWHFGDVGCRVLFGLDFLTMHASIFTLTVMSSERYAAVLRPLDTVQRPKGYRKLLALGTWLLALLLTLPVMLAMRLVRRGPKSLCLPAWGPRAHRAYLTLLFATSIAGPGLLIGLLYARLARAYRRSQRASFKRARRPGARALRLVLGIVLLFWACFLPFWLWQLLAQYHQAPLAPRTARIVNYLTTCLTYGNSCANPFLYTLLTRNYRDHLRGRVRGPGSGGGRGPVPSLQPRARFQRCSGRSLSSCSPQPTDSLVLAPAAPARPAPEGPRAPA
Nature of the assay: Human radioligand binding assay, (125I)-U-II on HSMM.
Conditions: not given
As to the method:
Human Skeletal Muscle Myoblasts (HSMM) were obtained from Cambrex, and were cultured according to manufacturer's instruction. Cell viability was examined by trypan blue exclusion. Cells at less than 4 passages were used in all studies. […] The binding medium used was Dulbecco's modified Eagle's medium (DMEM) containing 2 mg/ml BSA and 25 mM HEPES (pH 7.4). […] The cells were washed 4× with the binding medium and solubilized in 1% SDS and 0.5 N NaOH. Radioactivity was quantified by gamma counting.
`CC(C)(C)OC(=O)NCCOCCNC(=O)c1cc(Cl)ccc1C1CCN(CCN2C(=O)COc3ccccc32)CC1` [Cpd 79, {2-[2-(5-chloro-2-{1-[2-(3-oxo-2,3-dihydro-benzo[1,4]oxazin-4-yl)-ethyl]-piperidin-4-yl}-benzoylamino)-ethoxy]-ethyl}-carbamic acid tert-butyl ester] displayed a Ki of 0.053 µM.

Still in this assay, the particulars now being: 0.150 nM (125I)-U-II, intact Human Skeletal Muscle Myoblasts, 3 hrs, 25° C.; read-out: Ki.
Turning to `O=C(NCCc1ccccc1)c1cc(Cl)ccc1C1CCN(CCN2C(=O)COc3ccccc32)CC1` [Cpd 57, 5-chloro-2-{1-[2-(3-oxo-2,3-dihydro-benzo[1,4]oxazin-4-yl)-ethyl]-piperidin-4-yl}-N-phenethyl-benzamide], the Ki was found to be 0.19 µM. Regarding `O=C(NCC1CCN(C(=O)NCc2ccccc2)CC1)c1cc(Cl)ccc1C1CCN(CCN2C(=O)COc3ccccc32)CC1` [Cpd 67, 4-[(5-chloro-2-{1-[2-(3-oxo-2,3-dihydro-benzo[1,4]oxazin-4-yl)-ethyl]-piperidin-4-yl}-benzoylamino)-methyl]-piperidine-1-carboxylic acid benzylamide], the Ki was found to be 0.03 µM.

Another assay addresses T2, rat GPR14 (U-II receptor) (Rattus norvegicus, UniProt P49684).
T2 construct: expressed in transfected cells
T2 sequence (P49684 1-386): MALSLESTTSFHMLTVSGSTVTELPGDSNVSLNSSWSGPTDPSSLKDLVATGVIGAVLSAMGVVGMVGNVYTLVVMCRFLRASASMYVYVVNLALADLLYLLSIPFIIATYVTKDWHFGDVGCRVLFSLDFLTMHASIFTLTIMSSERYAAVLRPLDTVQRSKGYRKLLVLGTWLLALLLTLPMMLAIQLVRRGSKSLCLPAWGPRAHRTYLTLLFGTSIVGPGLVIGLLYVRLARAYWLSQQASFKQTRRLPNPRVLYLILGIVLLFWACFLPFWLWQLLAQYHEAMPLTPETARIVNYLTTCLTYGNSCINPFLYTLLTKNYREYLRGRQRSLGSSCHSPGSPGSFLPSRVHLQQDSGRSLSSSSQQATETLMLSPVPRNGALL
The assay is described as follows: Calcium flux assay (FLIPR). To be noted: Inhibition of acetyl-cyclic[Cys-Phe-Trp-Lys-(2-Nal)-Cys]-NH2 (1 nM) induced Ca2+ mobilization (FLIPR) in CHO cells transfected with rat UII receptor; 5 min incubation. Type of assay: cell-based. The text has this:
To derive these cells, the complete coding sequence of rat […] was amplified by nested PCR from rat heart marathon-Ready cDNA. […] The PCR products were cloned into pcDNA3 (Invitrogen) digested with EcoR I and Xba I. Clones containing rat U-II receptor were verified by complete sequencing of the U-II receptor insert to ensure a lack of PCR-introduced errors. The constructed vector was transfected into CHO cells by using lipofectamine (GIBCO BRL). CHO cells with high expression of rat U-II receptor were selected and established as stable cell lines by using G418. CHO cells were seeded at 25,000 cells per well into 96-well, black-wall, clear-bottom microtiter plates 24 hrs before assay. Cells in culture media (DMEM/F12 containing 15 mM HEPES, L-glutamine, pyridoxine hydrochloride; 10% fetal bovine serum; 1 mg/mL G418 sulfate; antibiotic-antimycotic; pH 7.4) were loaded with proprietary dye, from the FLIPR Calcium Assay Kit (Molecular Devices), prepared in assay buffer (Hanks Balanced Salts Solution, 20 mM HEPES, 0.1% BSA, 2.5 mM probenecid, pH 7.4), and incubated for 1 hr at 37° C. Calcium mobilization determinations were performed at room temperature (23° C.).
Take `O=C(NCCc1ccccc1)c1cc(Cl)ccc1C1CCN(CCN2C(=O)COc3ccccc32)CC1` [Cpd 57, 5-chloro-2-{1-[2-(3-oxo-2,3-dihydro-benzo[1,4]oxazin-4-yl)-ethyl]-piperidin-4-yl}-N-phenethyl-benzamide]: the IC50 was 1.3 µM. As for `O=C(NCC1CCN(C(=O)NCc2ccccc2)CC1)c1cc(Cl)ccc1C1CCN(CCN2C(=O)COc3ccccc32)CC1` [Cpd 67, 4-[(5-chloro-2-{1-[2-(3-oxo-2,3-dihydro-benzo[1,4]oxazin-4-yl)-ethyl]-piperidin-4-yl}-benzoylamino)-methyl]-piperidine-1-carboxylic acid benzylamide], the IC50 was found to be 0.21 µM. Same read-out and setting: the figure for `CC(C)(C)OC(=O)NCCOCCNC(=O)c1cc(Cl)ccc1C1CCN(CCN2C(=O)COc3ccccc32)CC1` [Cpd 79, {2-[2-(5-chloro-2-{1-[2-(3-oxo-2,3-dihydro-benzo[1,4]oxazin-4-yl)-ethyl]-piperidin-4-yl}-benzoylamino)-ethoxy]-ethyl}-carbamic acid tert-butyl ester] is 0.037 µM; for `CC(C)(C)OC(=O)NCCCCCNC(=O)c1ccccc1C1CC2CCC(C1)N2CCN1C(=O)COc2ccccc21` (centres unmarked) [Cpd 97, [5-(2-{8-[2-(3-oxo-2,3-dihydro-benzo[1,4]oxazin-4-yl)-ethyl]-8-aza-bicyclo[3.2.1]oct-3-yl}-benzoylamino)-pentyl]-carbamic acid tert-butyl ester] it is 5.4 µM. In the case of `CC(CCc1ccccc1)NC(=O)c1ccccc1C1CCN(CCN2C(=O)COc3ccccc32)CC1` (centres unmarked) [Cpd 25, N-(1-methyl-3-phenyl-propyl)-2-{1-[2-(3-oxo-2,3-dihydro-benzo[1,4]oxazin-4-yl)-ethyl]-piperidin-4-yl}-benzamide], the IC50 came to 4 µM. For `O=C(NCc1ccccc1)c1ccccc1C1CCN(CCN2C(=O)COc3ccccc32)CC1` [Cpd 2, N-benzyl-2-{1-[2-(3-oxo-2,3-dihydro-benzo[1,4]oxazin-4-yl)-ethyl]-piperidin-4-yl}-benzamide], the IC50 was 7.9 µM.

`O=C(NCc1ccncc1)c1ccccc1C1CCN(CCN2C(=O)COc3ccccc32)CC1` [Cpd 44, 2-{1-[2-(3-oxo-2,3-dihydro-benzo[1,4]oxazin-4-yl)-ethyl]-piperidin-4-yl}-N-pyridin-4-ylmethyl-benzamide]: the IC50 was determined as 21 µM. With `O=C(NCCc1ccc(Cl)cc1)c1ccccc1C1CCN(CCN2C(=O)COc3ccccc32)CC1` [Cpd 9, N-[2-(4-chloro-phenyl)-ethyl]-2-{1-[2-(3-oxo-2,3-dihydro-benzo[1,4]oxazin-4-yl)-ethyl]-piperidin-4-yl}-benzamide], the IC50 amounted to 3.2 µM. Take `CC(CNC(=O)c1ccccc1C1CCN(CCN2C(=O)COc3ccccc32)CC1)c1ccccc1` (centres unmarked) [Cpd 28, 2-{1-[2-(3-oxo-2,3-dihydro-benzo[1,4]oxazin-4-yl)-ethyl]-piperidin-4-yl}-N-(2-phenyl-propyl)-benzamide]: the IC50 worked out at 9 µM. Still for that read-out and setting: to `O=C(NCCc1cccs1)c1ccccc1C1CCN(CCN2C(=O)COc3ccccc32)CC1` [Cpd 47, 2-{1-[2-(3-oxo-2,3-dihydro-benzo[1,4]oxazin-4-yl)-ethyl]-piperidin-4-yl}-N-(2-thiophen-2-yl-ethyl)-benzamide] belongs 7 µM; to `CC(C)NC(=O)NCCCCCNC(=O)c1cc(Cl)ccc1C1CCN(CCN2C(=O)COc3ccccc32)CC1` [Cpd 80, 5-chloro-N-[5-(3-isopropyl-ureido)-pentyl]-2-{1-[2-(3-oxo-2,3-dihydro-benzo[1,4]oxazin-4-yl)-ethyl]-piperidin-4-yl}-benzamide], 0.21 µM; to `CN(Cc1ccccc1)C(=O)c1ccccc1C1CCN(CCN2C(=O)COc3ccccc32)CC1` [Cpd 5, N-benzyl-N-methyl-2-{1-[2-(3-oxo-2,3-dihydro-benzo[1,4]oxazin-4-yl)-ethyl]-piperidin-4-yl}-benzamide], 11 µM. Same read-out and setting: the figure for `COc1cc(CCNC(=O)c2ccccc2C2CCN(CCN3C(=O)COc4ccccc43)CC2)cc(OC)c1` [Cpd 17, N-[2-(3,5-dimethoxy-phenyl)-ethyl]-2-{1-[2-(3-oxo-2,3-dihydro-benzo[1,4]oxazin-4-yl)-ethyl]-piperidin-4-yl}-benzamide] is 7 µM; for `CN(C)C(=O)c1cc(Cl)ccc1C1CCN(CCN2C(=O)COc3ccccc32)CC1` [Cpd 59, 5-chloro-N,N-dimethyl-2-{1-[2-(3-oxo-2,3-dihydro-benzo[1,4]oxazin-4-yl)-ethyl]-piperidin-4-yl}-benzamide] it is 10 µM. The same measure, in the same setting: to `CN(CCc1ccccc1)C(=O)C1(c2ccccc2)CCN(CCN2C(=O)COc3ccccc32)CC1` [Cpd 106, 1-[2-(3-oxo-2,3-dihydro-benzo[1,4]oxazin-4-yl)-ethyl]-4-phenyl-piperidine-4-carboxylic acid methyl-phenethyl-amide] belongs 14 µM. Regarding `O=C1COc2ccccc2N1CCN1CCC(c2cccc(Cl)c2)CC1` [Cpd 92, 4-{2-[4-(3-chloro-phenyl)-piperidin-1-yl]-ethyl}-4H-benzo[1,4]oxazin-3-one], the IC50 is 20 µM.

Take `O=C(NCCN1CCCCC1)c1cc(Cl)ccc1C1CCN(CCN2C(=O)COc3ccccc32)CC1` [Cpd 71, 5-chloro-2-{1-[2-(3-oxo-2,3-dihydro-benzo[1,4]oxazin-4-yl)-ethyl]-piperidin-4-yl}-N-(2-piperidin-1-yl-ethyl)-benzamide]: the IC50 was 0.27 µM. Consider `O=C(NCCc1c[nH]c2ccccc12)c1cc(Cl)ccc1C1CCN(CCN2C(=O)COc3ccccc32)CC1` [Cpd 62, 5-chloro-N-[2-(1H-indol-3-yl)-ethyl]-2-{1-[2-(3-oxo-2,3-dihydro-benzo[1,4]oxazin-4-yl)-ethyl]-piperidin-4-yl}-benzamide], for which the concentration for half-maximal inhibition (IC50) was determined as 0.9 µM. On the same count and under the same terms, the figure for `CCOCCCNC(=O)c1ccccc1C1CCN(CCN2C(=O)COc3ccccc32)CC1` [Cpd 38, N-(3-ethoxy-propyl)-2-{1-[2-(3-oxo-2,3-dihydro-benzo[1,4]oxazin-4-yl)-ethyl]-piperidin-4-yl}-benzamide] is 23 µM; for `O=C(NCCc1ccc(Cl)c(Cl)c1)c1ccccc1C1CCN(CCN2C(=O)COc3ccccc32)CC1` [Cpd 11, N-[2-(3,4-dichloro-phenyl)-ethyl]-2-{1-[2-(3-oxo-2,3-dihydro-benzo[1,4]oxazin-4-yl)-ethyl]-piperidin-4-yl}-benzamide] it is 5.4 µM; for `O=C(NCC1CC1)c1ccccc1C1CCN(CCN2C(=O)COc3ccccc32)CC1` [Cpd 24, N-cyclopropylmethyl-2-{1-[2-(3-oxo-2,3-dihydro-benzo[1,4]oxazin-4-yl)-ethyl]-piperidin-4-yl}-benzamide] it is 12 µM. Still for that read-out and setting: the figure for `O=C(NCCc1ccccc1Cl)c1ccccc1C1CCN(CCN2C(=O)COc3ccccc32)CC1` [Cpd 8, N-[2-(2-chloro-phenyl)-ethyl]-2-{1-[2-(3-oxo-2,3-dihydro-benzo[1,4]oxazin-4-yl)-ethyl]-piperidin-4-yl}-benzamide] is 14 µM. Still for that read-out and setting: the figure for `O=C(NCCc1ccncc1)c1ccccc1C1CCN(CCN2C(=O)COc3ccccc32)CC1` [Cpd 45, 2-{1-[2-(3-oxo-2,3-dihydro-benzo[1,4]oxazin-4-yl)-ethyl]-piperidin-4-yl}-N-(2-pyridin-4-yl-ethyl)-benzamide] is 16 µM.
